These results are taken from ChEMBL document CHEMBL3877251, “Synthesis and biological evaluation of a series of N-alkylated imidazole alkanoic acids as mGAT3 selective GABA uptake inhibitors” (Eur J Med Chem, 2016).

Common to all, as to type: cell-based
Test [1] concerns the target Sodium- and chloride-dependent GABA transporter 1 (Mus musculus, UniProt P31648). The test is described as follows: Inhibition of mouse GAT1 expressed in HEK293 cells assessed as decrease in [3H]GABA uptake preincubated for 25 mins followed by [3H]GABA addition measured after 4 mins by liquid scintillation counter method.
Another test deals with T1, GABA transporter 2 (Mus musculus, UniProt P31651).
T1 sequence (P31651 whole entry): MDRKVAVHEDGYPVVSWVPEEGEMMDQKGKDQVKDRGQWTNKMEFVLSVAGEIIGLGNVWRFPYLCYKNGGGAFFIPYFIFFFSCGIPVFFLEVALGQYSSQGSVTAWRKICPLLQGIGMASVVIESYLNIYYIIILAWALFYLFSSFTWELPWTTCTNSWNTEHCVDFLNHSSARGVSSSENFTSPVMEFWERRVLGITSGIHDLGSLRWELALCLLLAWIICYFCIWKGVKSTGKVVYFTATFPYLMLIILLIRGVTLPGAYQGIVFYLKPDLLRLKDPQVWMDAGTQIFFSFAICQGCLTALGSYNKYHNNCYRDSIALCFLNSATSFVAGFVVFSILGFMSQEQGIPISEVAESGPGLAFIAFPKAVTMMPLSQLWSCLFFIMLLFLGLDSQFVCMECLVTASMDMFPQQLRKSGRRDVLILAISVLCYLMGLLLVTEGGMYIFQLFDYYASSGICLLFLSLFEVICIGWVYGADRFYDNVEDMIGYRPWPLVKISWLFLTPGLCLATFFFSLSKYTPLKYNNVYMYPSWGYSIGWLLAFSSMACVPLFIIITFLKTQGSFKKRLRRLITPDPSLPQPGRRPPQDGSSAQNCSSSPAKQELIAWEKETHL
Nature of the test: Inhibition of mouse GAT2 expressed in HEK293 cells assessed as decrease in [3H]GABA uptake preincubated for 25 mins followed by [3H]GABA addition measured after 10 mins by liquid scintillation counter method.

The next test has as its target T2, GABA transporter 4 (Mus musculus, UniProt P31650).
T2 sequence (P31650 whole entry): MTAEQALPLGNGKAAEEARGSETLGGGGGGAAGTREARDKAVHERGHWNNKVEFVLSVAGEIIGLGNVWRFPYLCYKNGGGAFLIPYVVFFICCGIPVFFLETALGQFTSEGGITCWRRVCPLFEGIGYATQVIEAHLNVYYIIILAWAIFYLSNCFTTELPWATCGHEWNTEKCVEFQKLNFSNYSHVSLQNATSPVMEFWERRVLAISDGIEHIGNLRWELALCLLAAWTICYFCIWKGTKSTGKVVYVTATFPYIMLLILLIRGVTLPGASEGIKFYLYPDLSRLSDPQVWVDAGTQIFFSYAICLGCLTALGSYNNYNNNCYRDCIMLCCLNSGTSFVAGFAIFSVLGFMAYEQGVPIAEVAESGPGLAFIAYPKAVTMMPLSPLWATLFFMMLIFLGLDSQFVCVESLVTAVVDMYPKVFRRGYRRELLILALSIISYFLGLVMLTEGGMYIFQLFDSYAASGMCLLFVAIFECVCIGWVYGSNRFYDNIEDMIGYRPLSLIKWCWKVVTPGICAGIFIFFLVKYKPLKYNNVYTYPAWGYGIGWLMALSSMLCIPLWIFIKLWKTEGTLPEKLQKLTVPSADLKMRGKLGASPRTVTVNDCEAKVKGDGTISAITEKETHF
Nature of the test: Inhibition of mouse GAT4 expressed in HEK293 cells assessed as decrease in [3H]GABA uptake preincubated for 25 mins followed by [3H]GABA addition measured after 4 mins by liquid scintillation counter method.

Test [2] addresses Sodium- and chloride-dependent GABA transporter 1 (Mus musculus) (UniProt P31648). Nature of the test: Inhibition of mouse GAT1 expressed in HEK293 cells assessed as decrease in [3H]GABA uptake at 100 uM preincubated for 25 mins followed by [3H]GABA addition measured after 4 mins by liquid scintillation counter method.
The target of test [3] is T3, GABA transporter 2 (Mus musculus) (UniProt P31651).
T3 sequence (whole entry): T1 sequence (P31651 whole entry)
The test is described as follows: Inhibition of mouse GAT2 expressed in HEK293 cells assessed as decrease in [3H]GABA uptake at 100 uM preincubated for 25 mins followed by [3H]GABA addition measured after 10 mins by liquid scintillation counter method.

For test [4], the target named is T4, GABA transporter 3 (Mus musculus) (UniProt P31649).
T4 sequence (whole entry): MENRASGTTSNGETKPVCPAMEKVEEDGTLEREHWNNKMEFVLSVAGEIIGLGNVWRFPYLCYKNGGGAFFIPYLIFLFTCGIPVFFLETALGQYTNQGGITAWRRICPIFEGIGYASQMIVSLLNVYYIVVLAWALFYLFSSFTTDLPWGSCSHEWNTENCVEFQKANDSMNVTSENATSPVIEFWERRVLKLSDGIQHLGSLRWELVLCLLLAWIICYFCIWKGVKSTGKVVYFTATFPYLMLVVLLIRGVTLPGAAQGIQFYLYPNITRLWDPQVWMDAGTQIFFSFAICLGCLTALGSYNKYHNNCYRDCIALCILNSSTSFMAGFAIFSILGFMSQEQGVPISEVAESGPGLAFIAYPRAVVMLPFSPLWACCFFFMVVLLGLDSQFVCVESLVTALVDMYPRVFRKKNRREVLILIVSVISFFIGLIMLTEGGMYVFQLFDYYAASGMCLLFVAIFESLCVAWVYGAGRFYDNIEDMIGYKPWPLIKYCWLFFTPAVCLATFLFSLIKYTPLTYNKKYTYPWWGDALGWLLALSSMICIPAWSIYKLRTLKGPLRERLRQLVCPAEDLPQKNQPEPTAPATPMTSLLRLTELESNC
The test is described as follows: Inhibition of mouse GAT3 expressed in HEK293 cells assessed as decrease in [3H]GABA uptake at 100 uM preincubated for 25 mins followed by [3H]GABA addition measured after 4 mins by liquid scintillation counter method.

The target in test [5] is T5, GABA transporter 4 (Mus musculus) (UniProt P31650).
T5 sequence (whole entry): T2 sequence (P31650 whole entry)
Nature of the test: Inhibition of mouse GAT4 expressed in HEK293 cells assessed as decrease in [3H]GABA uptake at 100 uM preincubated for 25 mins followed by [3H]GABA addition measured after 4 mins by liquid scintillation counter method.

The next test has as its target T6, GABA transporter 3 (Mus musculus, UniProt P31649).
T6 sequence (P31649 whole entry): T4 sequence (whole entry)
Nature of the test: Inhibition of mouse GAT3 expressed in HEK293 cells assessed as decrease in [3H]GABA uptake preincubated for 25 mins followed by [3H]GABA addition measured after 4 mins by liquid scintillation counter method.

Usually IC50 stands for the concentration that inhibits the measured activity by half. `COc1ccc(C2(OCCCCCn3ccnc3/C=C/C(=O)O)c3ccccc3-c3ccccc32)cc1`: the IC50 in test [1] was 12.6 µM; at GABA transporter 2, 28.8 µM; at GABA transporter 4, 10.2 µM.

As usually defined, the inhibition is the relative decrease from the control value, in per cent. As for `COc1ccc(C2(OCCn3ccnc3CCC(=O)O)c3ccccc3-c3ccccc32)cc1`, the inhibition in test [2] worked out at 64.8%; in test [3] it was 53%; in test [4], 43.2%; in test [5], 58.3%.

Regarding `O=C(O)/C=C/c1ncc[nH]1`, the inhibition in test [2] amounted to 73.7%; in test [3], 77.3%; in test [5], 47.2%.

On to `COc1ccc(C2(OCCCCn3cncc3CC(=O)O)c3ccccc3-c3ccccc32)cc1`, for which the IC50 on GABA transporter 2 is 22.9 µM. The values for the inhibition in test [2], in test [4] and in test [5] were 70.8%, 41.7% and 59%, respectively.

For `COc1ccc(C2(OCCCCCn3ccnc3CCC(=O)O)c3ccccc3-c3ccccc32)cc1`, the IC50 in test [1] is 11.7 µM; at GABA transporter 2, 12.6 µM; on GABA transporter 3, 23.4 µM; at GABA transporter 4, 29.5 µM.

As to `COc1ccc(C2(/C=C/Cn3ccnc3CCC(=O)O)c3ccccc3-c3ccccc32)cc1`, the IC50 on GABA transporter 2 was 25.1 µM; at GABA transporter 3, 35.5 µM; at GABA transporter 4, 43.7 µM. For the same compound, in test [2], the inhibition was 48.5%.

Regarding `COc1ccc(C2(OCCCCn3cnc(CC(=O)O)c3)c3ccccc3-c3ccccc32)cc1`, the values for the concentration for half-maximal inhibition (IC50) at GABA transporter 2, on GABA transporter 3 and on GABA transporter 4 were 24 µM, 39.8 µM and 49 µM, respectively. For the same compound, in test [2], the inhibition is 64.9%.

With `Cc1ccsc1C(=CCCN1CCC[C@@H](C(=O)O)C1)c1sccc1C`, the inhibition in test [3] was found to be 52%; in test [4], 64%; in test [5], 73%.

Take `COc1ccc(C2(OCCCn3cnc(CC(=O)O)c3)c3ccccc3-c3ccccc32)cc1`: on GABA transporter 2, the concentration for half-maximal inhibition (IC50) is 97.7 µM. For the same compound, the inhibition in test [2] turned out to be 84.2%; in test [4], 51.4%; in test [5] it was 61.4%.

Take `COc1ccc(C2(OCCn3cnc(CC(=O)O)c3)c3ccccc3-c3ccccc32)cc1`: the inhibition in test [2] amounted to 56.6%; in test [3], 44%; in test [4], 46.7%; in test [5] it was 85.4%.

Regarding `COc1ccc(C2(OCCCn3ccnc3CCC(=O)O)c3ccccc3-c3ccccc32)cc1`, the half-maximal inhibitory concentration (IC50) in test [1] was 100 µM. Further, the inhibition was 31.2% in test [3], 48.6% in test [4] and 55.4% in test [5].

On to `COc1ccc(C2(OCCCn3cncc3CC(=O)O)c3ccccc3-c3ccccc32)cc1`, for which the IC50 at GABA transporter 3 was 81.3 µM. Besides, the inhibition stood at 50.1% in test [2], 70.1% in test [3] and 55.6% in test [5].

On to `COc1ccc(C2(OC/C=C/Cn3ccnc3CCC(=O)O)c3ccccc3-c3ccccc32)cc1`, for which the 50% inhibitory concentration (IC50) on GABA transporter 2 is 32.4 µM. Besides, the inhibition in test [2] is 55.8%; in test [4], 43.9%; in test [5] it was 61.4%.

With `COc1ccc(C2(OCCCCCn3cncc3CC(=O)O)c3ccccc3-c3ccccc32)cc1`, the 50% inhibitory concentration (IC50) in test [1] is 79.4 µM. The inhibition in test [3] is 38.5%; in test [4], 68%; in test [5], 77.4%.

As to `O=C(O)CCc1ncc[nH]1`, the values for the concentration for half-maximal inhibition (IC50) at GABA transporter 2, at GABA transporter 3 and on GABA transporter 4 were 525 µM, 28.8 µM and 309 µM, respectively. Further, in test [2], the inhibition came out at 62.8%.

Regarding `O=C(O)CCc1nccn1CCC=C(c1ccccc1)c1ccccc1`, the IC50 in test [1] is 74.1 µM; on GABA transporter 2, 58.9 µM. Further, the values for the inhibition in test [4] and in test [5] were 48.1% and 53.7%, respectively.

In the case of `COc1ccc(C2(/C=C/Cn3cnc(CC(=O)O)c3)c3ccccc3-c3ccccc32)cc1`, the IC50 on GABA transporter 3 is 47.9 µM; at GABA transporter 4, 39.8 µM. In addition, the inhibition was found to be 62.4% in test [2] and 24.2% in test [3].

For the compound `COc1ccc(C2(/C=C/Cn3cncc3CC(=O)O)c3ccccc3-c3ccccc32)cc1`, the IC50 is 126 µM in test [1], 166 µM at GABA transporter 2, 79.4 µM at GABA transporter 3 and 110 µM on GABA transporter 4.

On to `COc1ccc(C2(OCCCCCn3cnc(CC(=O)O)c3)c3ccccc3-c3ccccc32)cc1`, for which the concentration for half-maximal inhibition (IC50) on GABA transporter 2 was 61.7 µM; at GABA transporter 3 it was 97.7 µM; on GABA transporter 4 it was 105 µM. In test [2], the inhibition worked out at 72.7%.

Turning to `COc1ccc(C2(/C=C/COCCn3ccnc3CCC(=O)O)c3ccccc3-c3ccccc32)cc1`, the 50% inhibitory concentration (IC50) in test [1] was 26.3 µM; at GABA transporter 2, 30.9 µM; at GABA transporter 3, 24.5 µM; at GABA transporter 4, 21.9 µM.

Regarding `COc1ccc(C2(OC/C=C\Cn3ccnc3CCC(=O)O)c3ccccc3-c3ccccc32)cc1`, the IC50 in test [1] was 70.8 µM; on GABA transporter 2, 37.2 µM; at GABA transporter 3, 15.8 µM; on GABA transporter 4, 13.2 µM.

Regarding `COc1ccc(C2(OCCOCCn3ccnc3CCC(=O)O)c3ccccc3-c3ccccc32)cc1`, the IC50 in test [1] is 37.2 µM; at GABA transporter 3, 28.2 µM. For the same compound, the inhibition came to 48.3% in test [3] and 50.7% in test [5].

`COc1ccc(C2(OCCCCn3ccnc3CCC(=O)O)c3ccccc3-c3ccccc32)cc1`: the half-inhibitory concentration (IC50) is 141 µM in test [1], 25.1 µM on GABA transporter 2, 87.1 µM at GABA transporter 3 and 174 µM on GABA transporter 4.

`COc1ccc(C2(OCCn3cncc3CC(=O)O)c3ccccc3-c3ccccc32)cc1`: the inhibition was 67.2% in test [2], 57.9% in test [3], 50.8% in test [4] and 46% in test [5].
